This note sets out measurements from patent publication US20060188921A1, “Methods for diagnosing and treating systemic lupus erythematosus disease and compositions thereof” (Wyeth, priority 2001, published 2006).

The assay deals with whole kidney samples, approximately 11,000 murine genes. Nature of the assay: Kidney gene expression on oligonucleotide arrays in murine model of autoimmune kidney disease (untreated, rapamycin-treated, anti-B7-treated). It counts as in vivo, NZB/NZW F1 mice. The conditions noted are these: Example 2(A); normalized = difference in expression of less than five versus untreated asymptomatic mice. As to the method:
NZB/NZW F1 (B/W) mice develop an autoimmune kidney disease that is analogous to human systemic erythematosus. Mice, aged at intervals from 12 weeks (asymptomatic) to 42 weeks (diseased) were chosen to mimic the clinical presentation of patients with established SLE. By seven months of age, mice begin to develop nephritis characterized by proteinuria, anti-DNA antibody production and histopathologic changes in the kidney. […]
Labeled RNA was prepared from clones containing a T7 RNA polymerase promoter site by incorporating labeled ribonucleotides in an in vitro transcription (IVT) reaction. […] RNA was concentrated and then quantitated by spectrophotometry. […]
The labeled and fragmented RNA probes were diluted in 1×MES buffer, BIO948, Bio C, B cre, 100 μg/ml herring sperm DNA, and 50 μg/ml acetylated BSA. […] When biotin-labeled RNA was used, the hybridized RNA was stained with a streptavidin-phycoerythrin conjugate (Molecule Probes, Eugene, Oreg.) prior to reading. […] The arrays were again washed and stained with streptavidin SSPE-T prior to being reading. The arrays were read using a scanning confocal microscope made for Affymetrix by Molecular Dynamics (commercially available through Affymetrix, Santa Clara, Calif.). […]

Turning to `CO[C@H]1C[C@@H]2CC[C@@H](C)[C@@](O)(O2)C(=O)C(=O)N2CCCC[C@H]2C(=O)O[C@H]([C@H](C)C[C@@H]2CC[C@@H](O)[C@H](OC)C2)CC(=O)[C@H](C)/C=C(\C)[C@@H](O)[C@@H](OC)C(=O)[C@H](C)C[C@H](C)/C=C/C=C/C=C/1C` [rapamycin], the “number of genes not normalized by rapamycin treatment” value was determined as 23 genes.
